Test results reported in patent US20140377340A1, “HLA-DR BINDING PEPTIDES AND THEIR USES” (priority 2007, published 2014).

Assays:
[1] = system: peptide-specific T cells in PBMC; assay: 10-day interferon-gamma ELIspot with PBMC of breast or ovarian cancer patients and healthy controls; type: cell-based, human; details: fraction of breast or ovarian cancer patients with mean T cell values above cutoff (mean + 2 SD of healthy donors)
From the text: Each panel represents a unique peptide and each data point is derived from one individual. The grey box (i.e. cutoff) delineates the region that constitutes the mean and two standard deviations calculated from the normal healthy individuals. The percentages represent the fraction of patients that had mean T cell values above the cutoff. The peptides that are circled are those in which a higher fraction of the patients responded compared to the normal healthy controls. These peptides are considered to be the best vaccine candidates. However, it is clear that the rigidness of this approach could potentially result in many false negatives. […] Despite this, we identified 5 candidates to move forward. The fidelity of this approach is evident from a prior study which has already shown that a HER-2/neu peptide, p884-899, which encompasses the binding motif of p885, is an HLA-DR4 epitope.
Enzyme-linked immunosorbent spot assay. A 10-day ELlspot for detecting low-frequency T cells was used to determine reactivity to the tumor antigen peptides (Table 1) as described (Knutson K L et al. J Clin Onc 2006;24: 4254-61). […] PMA/Ionomycin and the CEF pool were used as positive non-tumor related controls as previously described (Knutson, 2006).
Using predictive algorithms discussed above, candidate HLA-DR1-binding epitopes were identified. […] An interferon-gamma ELIspot assay was used to assess immunity to the indiscriminate binding peptides in 48 patients with either breast or ovarian cancer and 18 healthy controls.
Using an ELlspot assay with a limit of detection of approximately […], patient-derived PBMC were screened for reactivity against all of the HLA-DR binding peptides.

[2] = system: short term T cell lines from breast or ovarian cancer patients; assay: IFN-γ ELISpot analysis of short term T cell lines (peptide versus protein fragment; natural processing); type: cell-based, human; details: T cell lines respond to culture peptide and to protein fragment; FIGS. 5 and 6
From the text: IFN-γ ELISpot analysis of short term T cell lines generated against HER-2/neu peptides, p53 (Panel A), p83 (Panel B), p88 (Panel C) and p885 (Panel D). […] Each bar is the mean (s.e.m.) of three replicates.
FIG. 6 is identical to FIG. 5 except that the results were obtained using IGFBP-2 derived helper epitopes.

[3] = system: 15 different HLA-DR molecules; assay: HLA-DR binding assays, panel of 15 different HLA-DR molecules (breadth of binding); details: number of the 15 HLA-DR molecules bound (binders: 1000 nM or better)
purified HLA DRB1*0101 = biological target: T1, purified HLA DRB1*0101 (Homo sapiens, UniProt P01903+P01911, A100R/D57E/F55L/F60I/F76Y/I96L/L162R/M171V/P40L/Q125E/R42F/V115G/Y59C); assay: HLA-DR radioligand binding inhibition assay, DRB1*0101; details: read-out: IC50 nM purified HLA DRB1 *0101; purified HLA DRB1*0101
T1 construct: purified from EBV transformed homozygous cell lines or single MHC allele transfected 721.221, C1R, or fibroblast lines; made in house
Method in brief: (§1)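 First, HLA-DR was purified from lysates on LB3.1 columns. Then 1 μM to 1 nM protein was incubated 2 days with 1-10 nM radiolabeled peptide at pH 4 to 7. Finally, complexes were captured for 3 hours and bound cpm determined.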

purified HLA DRB1*0405 = biological target: T2, purified HLA DRB1*0405 (Homo sapiens, UniProt P01903+P01911, A100R/A169T/D86S/F76Y/I96L/K127E/L162R/M171V/N62H/P40V/Q125Y/R42H/S133A/S149N/S66Y/V115G/V209L/W38E); assay: HLA-DR radioligand binding inhibition assay, DRB1*0405; details: read-out: IC50 nM purified HLA DRB1 *0405; purified HLA DRB1*0405
T2 construct: purified from EBV transformed homozygous cell lines or single MHC allele transfected 721.221, C1R, or fibroblast lines; made in house
Method in brief: as §1

purified HLA DRB1*0901 = biological target: T3, purified HLA DRB1*0901 (Homo sapiens, UniProt P01903+P01911, A100R/A103E/D57H/D86V/F55Y/F60I/F76Y/I96F/K127E/L162R/M171V/P40D/Q125H/Q99R/R33Q/R42F/S133A/S66N/T210M/V115G/W38K/Y107V/Y59G/Y89S); assay: HLA-DR radioligand binding inhibition assay, DRB1*0901; details: read-out: IC50 nM purified HLA DRB1 *0901; purified HLA DRB1*0901
T3 construct: purified from EBV transformed homozygous cell lines or single MHC allele transfected 721.221, C1R, or fibroblast lines; made in house
Description: Instead, wells of an opaque white 96-well Optiplate (Packard) are coated with 3 μg (100 μl@ 30 μg/ml) of HLA-specific antibody (Ab) that “capture” complexes of radiolabeled MHC and unlabeled peptide transferred from the molecular binding assay plate in 100 μl of 0.05% NP40/PBS. After a 3-hour incubation period, the supernatant is decanted and scintillation fluid (Microscint 20) added. Captured complexes are then measured on a microplate scintillation and luminescence counter (TopCount NXTTM; Packard).
HLA-DR purification. Fifteen distinct HLA-DR molecules were used in quantitative assays to measure the binding of peptides to solubilized HLA-DR molecules. […] Briefly, columns of inactivated Sepharose CL4B and Protein A Sepharose were used as pre-columns. HLA-DR molecules were captured by passage of lysates over LB3.1 monoclonal antibody (anti-HLA-DRA) columns. Antibody columns were washed with 10 mM Tris-HCL, pH8.0 with 1% (v/v) NP-40, followed by PBS containing 0.4% (w/v) n-octylglucoside.
Briefly, 1-10 nM of radiolabeled peptide was co-incubated for 2 days at either room temperature or 37° C. with 1 μM to 1 nM purified HLA-DR molecules in the presence of a cocktail of protease inhibitors. Assays were performed at various pH conditions, ranging from pH 4 to pH 7. […] After incubation, the percentage of HLA-DR-bound radioactivity is determined by capturing HLA-DR/peptide complexes on Optiplates (Packard Instruments, Meriden, Conn.) coated with the LB3.1 antibody and determining bound counts per minute using the TopCount microscintillation counter (Packard Instruments).

purified HLA DRB1*1302 = biological target: T4, purified HLA DRB1*1302 (Homo sapiens, UniProt P01903+P01911, A100E/A169T/K41T/L162R/M171V/P40S/Q125H/Q178H/Q39Y/Q99D/R42S/S66N/T262R/V115G/W38E/Y61H); assay: HLA-DR radioligand binding inhibition assay, DRB1*1302
T4 construct: purified from EBV transformed homozygous cell lines or single MHC allele transfected 721.221, C1R, or fibroblast lines; made in house
Method in brief: as §1

CC[C@H](C)[C@H](NC(=O)[C@@H]1CCCN1)C(=O)N[C@@H](CCCCN)C(=O)N[C@@H](Cc1c[nH]c2ccccc12)C(=O)N[C@@H](CCSC)C(=O)N[C@@H](C)C(=O)N[C@@H](CC(C)C)C(=O)N[C@@H](CCC(=O)O)C(=O)N[C@@H](CO)C(=O)N[C@H](C(=O)N[C@@H](CC(C)C)C(=O)N[C@@H](CCCNC(=N)N)C(=O)N[C@@H](CCCNC(=N)N)C(=O)N[C@@H](CCCNC(=N)N)C(=O)N[C@@H](Cc1ccccc1)C(=O)O)[C@@H](C)CC [Peptide 9019.0087]
Percent of patients with responses [1]: 25% | naturally processed and presented antigen [2]: naturally processed and presented antigens | Total XRN [3]: 13

CC[C@H](C)[C@H](NC(=O)[C@H](Cc1c[nH]cn1)NC(=O)[C@H](CC(C)C)NC(=O)[C@H](CO)NC(=O)[C@H](Cc1ccc(O)cc1)NC(=O)[C@H](CC(C)C)NC(=O)[C@H](Cc1c[nH]cn1)NC(=O)[C@H](CCC(=O)O)NC(=O)[C@H](CC(C)C)NC(=O)[C@@H]1CCCN1C(=O)CNC(=O)[C@H](CCCNC(=N)N)NC(=O)[C@@H](N)CCC(=O)O)C(=O)N1CCC[C@H]1C(=O)N[C@@H](CC(N)=O)C(=O)O [Peptide 9019.0190, EROPLEHLYSLHIPN]
Percent of patients with responses [1]: 23% | naturally processed and presented antigen [2]: naturally processed peptides | Total XRN [3]: 8

CC(C)C[C@H](NC(=O)[C@H](CO)NC(=O)[C@H](C)NC(=O)[C@H](CC(N)=O)NC(=O)[C@@H](NC(=O)[C@@H]1CCCN1C(=O)[C@H](CC(C)C)NC(=O)[C@H](Cc1ccc(O)cc1)NC(=O)[C@@H](NC(=O)[C@H](CC(C)C)NC(=O)[C@H](CCC(=O)O)NC(=O)[C@H](CC(C)C)NC(=O)[C@@H](N)CC(N)=O)[C@@H](C)O)[C@@H](C)O)C(=O)N[C@@H](CO)C(=O)N[C@@H](Cc1ccccc1)C(=O)O [Peptide 9019.0030]
Percent of patients with responses [1]: 15% | naturally processed and presented antigen [2]: naturally processed and presented antigens | Total XRN [3]: 12

CC[C@H](C)[C@H](NC(=O)[C@H](CCCCN)NC(=O)[C@@H](NC(=O)[C@H](Cc1c[nH]cn1)NC(=O)[C@H](CC(N)=O)NC(=O)[C@@H]1CCCN1C(=O)[C@H](CO)NC(=O)[C@H](CCCCN)NC(=O)[C@@H](NC(=O)[C@H](CC(C)C)NC(=O)[C@@H](NC(=O)[C@H](CC(N)=O)NC(=O)[C@H](CCCNC(=N)N)NC(=O)[C@H](C)N)C(C)C)C(C)C)C(C)C)C(=O)N[C@H](C(=O)O)[C@@H](C)O
IC50 (purified HLA DRB1*0101): 65 nM | IC50 (purified HLA DRB1*0405): 10500 nM | IC50 (purified HLA DRB1*0901): 5780 nM | IC50 (purified HLA DRB1*1302): 15 nM
